Experiments:
SW480 cancer cells = experiment: Proteome profiling of compound-treated SW480 cancer cells (24 h, approx. IC50, CYT and NE fractions); type: cell-based, human
Procedure: To gain insight into potential modes of action and derive structure–activity relationships on a molecular level, proteomic profiling experiments were carried out based on label-free quantification (LFQ) by nano-liquid chromatography tandem mass spectrometry (nLC-MS/MS). […] Six replicates were used per condition. The perturbations were evaluated at subcellular resolution by fractionating cells into cytoplasmic (CYT) and nuclear (NE) protein fractions. Those have been separately proteolytically digested and analysed (Fig. 3A). The perturbations with the 3-Et-NQ and 3-Morph-NQ complexes were performed against their respective solvent-treated controls (CON), yielding a total of 72 samples. […] Statistical significance of individual protein regulations was calculated by multiple testing-corrected P-values based on 5% false discovery rate (FDR = 0.05 and S0 = 0.1).
The position of each group represents the summed fold-changes of the individual proteins in the group according to the subcellular space, i.e., CYT and NE fractions, while the size represents the number of proteins in each group. […]
Proteome profiling of compound-treated SW480 cancer cells […]
cells per well and left to adhere in complete cell culture medium. After 24 h, the medium was exchanged with fresh complete medium (DMSO mock control) or fresh medium containing […]
solution in DMSO, respectively) and incubated for another 24 h. Each condition was carried out in hexuplicates. The cells were processed according to a nucleocytoplasmic fractionation protocol as previously described.3 All steps were performed on ice. The medium was removed, and the cells were washed twice with 1×PBS (phosphate buffered saline, 3 mL). Then, PBS was thoroughly removed. Isotonic lysis buffer (10 mM HEPES, 10 mM NaCl, 3.5 mM MgCl2, 1 mM EGTA, 0.25 M Sucrose, 0.5% Triton X-100) containing protease inhibitors (1% PMSF, Sigma, and 1% protease and phosphatase inhibitor cocktail, Roche) was added to the flasks, the cells were scraped off and transferred into labelled 15 mL Falcon tubes. The cellular membrane was ruptured using shear stress by pressing the cell suspension through a syringe 9–12 times. Membrane rupture with intact nuclei was monitored under a microscope. After centrifugation (960 g, 5 min), the supernatant containing the cytoplasmic (CYT) proteins was transferred into new tubes containing ice-cold ethanol (1 : 5, HPLC grade) and precipitated […]
overnight at –20 °C. The pellet containing the nuclei was incubated with a hypertonic solution (10 mM Tris-HCl, 1 mM EDTA and 0.5 M NaCl) and subsequently diluted 1:10 with NP-40 buffer (10 mm Tris-HCl, 1 mm EDTA and 0.5% Triton X-100) containing protease inhibitors (1% PMSF, Sigma, and 1% protease and phosphatase inhibitor cocktail, Roche). After centrifugation (960 g, 5 min), the soluble nuclear (NE) proteins were also transferred into new tubes containing ice-cold ethanol (1 : 5, HPLC grade) and precipitated overnight at –20 °C.
The precipitated proteins were finally pelleted by centrifugation (5000 g, 30 min, 4 °C), the solution was decanted and the pellet dried under vacuum.

CH1/PA-1 = system: CH1/PA-1; set-up: method as in Ref. 1 (ESI); conditions: 96 h incubation; ref Ref. 1 (ESI); cited from earlier work
SW480 = system: SW480; set-up: method as in earlier work; conditions: 96 h incubation; ref 48 (ESI Ref. 1); cited from earlier work
[1] = cytoplasmic fraction, FDR = 0.05, S0 = 0.1

CCC1=C2[O][Ru][O]C2(n2cccn2)c2ccccc2C1=O.Cc1ccc(C(C)C)cc1 (centres unmarked) [Compound 1a, [(3-ethyl-4-oxo-(pyrazolyl)-dihydronaphthalene)(cymene)ruthenium(II)]]
N° proteins down-regulated, NE (SW480 cancer cells): 211
N° proteins upregulated, NE (SW480 cancer cells): 178
N° significantly regulated proteins, Total (SW480 cancer cells; CYT and NE): 810
TP53 regulation in cytoplasmic fraction (SW480 cancer cells; CYT fraction): strongest down-regulated protein
N° proteins down-regulated, CYT (SW480 cancer cells; [1]): 298
N° proteins upregulated, CYT (SW480 cancer cells; [1]): 123
IC50 (CH1/PA-1): 62 ± 5 µM
IC50 (SW480): 0.046 ± 0.007 µM
